Reference: patent US12653795B1, “Bupropion as a modulator of drug activity” (ANTECIP BIOVENTURES II LLC, priority 2022, dated 2026)

Experiment: Pharmacokinetics after administration of the subject combination
Details: co-administered with bupropion; dextromethorphan 30 to 60 mg, bupropion 75 to 150 mg
Text: In the subject combination, bupropion inhibits the metabolism of dextromethorphan via CYP2D6.

COc1ccc2c(c1)[C@]13CCCC[C@@H]1[C@H](C2)N(C)CC3 [dextromethorphan]
pharmacokinetics at steady state (dose proportionality of AUC and Cmax): nonlinear pharmacokinetics
